The source of these data is PMC6412877 (Molecules, 2019).

A word on the IC50: it is the concentration that gives 50% inhibition. For orientation: Emax means the maximal effect, on the per cent scale that the assay sets.

Numbered stars: 1 amine (or outer) side, 2 acyl side, 3 side chain; on linkers, the order of the positions; unused ones are H or OH. Side chains are listed from the residue outwards. Peptide text beside a SMILES is read from it. * marks the point of attachment. C18 diacid = O=C(O)CCCCCCCCCCCCCCCCC(=O)*; γGlu = O=C(O)[C@H](CCC(=O)[*:2])N[*:1]; AEEA = NCCOCCOCC(=O)O A value given as a limit tells only on which side of the number the result lay.

Experiment [1] concerns isolated ECD (GLP-1R). To be noted: ref [23],[24]; cited from earlier work. The text has this:
(§1) GLP-1R, is defined by seven transmembrane helices, an extracellular N terminus, and an intracellular C terminus, which is ligand binding via the extracellular and intracellular face, respectively, belongs to family B1 of the seven-transmembrane G protein-coupled receptors.

Experiment [2] deals with full-length GLP-1R. To be noted: ref [23],[24]; cited from earlier work.
Excerpt: as §1

The target of experiment [3] is T1, Mouse GLP-1R (Mus musculus, UniProt O35659).
T1 sequence (O35659 22-463): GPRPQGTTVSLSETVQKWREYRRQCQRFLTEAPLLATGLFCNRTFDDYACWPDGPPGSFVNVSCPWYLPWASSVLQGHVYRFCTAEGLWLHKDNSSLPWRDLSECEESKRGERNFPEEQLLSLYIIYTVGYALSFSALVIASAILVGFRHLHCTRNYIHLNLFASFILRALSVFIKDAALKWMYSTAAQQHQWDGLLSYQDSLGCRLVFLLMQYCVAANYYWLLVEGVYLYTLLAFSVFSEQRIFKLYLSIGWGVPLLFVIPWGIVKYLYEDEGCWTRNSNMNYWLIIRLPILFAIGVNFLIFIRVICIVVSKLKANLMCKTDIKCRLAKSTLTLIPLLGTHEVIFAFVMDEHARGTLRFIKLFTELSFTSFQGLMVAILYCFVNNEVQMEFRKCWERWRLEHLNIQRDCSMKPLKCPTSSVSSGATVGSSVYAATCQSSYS
Put plainly: In vitro GLP-1R activation, mouse receptor. To be noted: mean ± SD. Type of experiment: cell-based.

For experiment [4], the target named is Human GLP-1R (Homo sapiens, UniProt P43220). Description: In vitro GLP-1R activation, human receptor. Type of experiment: cell-based. To be noted: mean ± SD.
Experiment [5] relates to DIO mice. Description: Hypoglycemic duration test in non-fasted DIO mice. Type of experiment: in vivo. To be noted: male DIO mice, not fasted, 25 nmol/kg single s.c., n = 6. The protocol: The antihyperglycemic efficacy of PEP20 was investigated in male DIO mice. The BGLs of PEP20 group decreased rapidly to the normoglycemic state (<15 mmol/L) in 1 h after the administration of 25 nmol/kg. […] BGLs were detected using a one-touch blood glucose meter. Glucose-lowering duration under 8.35 mmol/L BGL was also checked

Experiment [6] deals with diet-induced obesity (DIO) mice. Description: Oral glucose tolerance test (glucoregulatory and insulin secretion assay) in DIO mice. Format: in vivo. To be noted: male DIO mice, n = 6. The protocol: Half hour after single dose injection of different samples, the mice were administrated with glucose (2.0 g/kg), and then the blood glucose and insulin levels were detected before and at 15, 30, 45, 60 and 120 min by the ELISA kit (Merck).

The subject of experiment [7] is DIO mice. Put plainly: Chronic in vivo study, 4 weeks, DIO mice. To be noted: 25 nmol/kg s.c. once daily for 4 weeks. The protocol:
To further examine the therapeutic potential of PEP20, chronic in vivo studies were performed by a daily subcutaneous (s.c.) injection of PEP20 (25 nmol/kg) in DIO mice for 4 weeks. […] Body weight, food intake, and water consumption were measured daily. DIO mice were subjected to OGTT at week 0 and at week 4 to evaluate the advance of diabetic statuses. HbA1c were measured after the treatment using an AU680 automatic biochemical analyzer (Beckman Coulter, Fullerton, […]).

Human GLP-1R, sequence (P43220 24-463): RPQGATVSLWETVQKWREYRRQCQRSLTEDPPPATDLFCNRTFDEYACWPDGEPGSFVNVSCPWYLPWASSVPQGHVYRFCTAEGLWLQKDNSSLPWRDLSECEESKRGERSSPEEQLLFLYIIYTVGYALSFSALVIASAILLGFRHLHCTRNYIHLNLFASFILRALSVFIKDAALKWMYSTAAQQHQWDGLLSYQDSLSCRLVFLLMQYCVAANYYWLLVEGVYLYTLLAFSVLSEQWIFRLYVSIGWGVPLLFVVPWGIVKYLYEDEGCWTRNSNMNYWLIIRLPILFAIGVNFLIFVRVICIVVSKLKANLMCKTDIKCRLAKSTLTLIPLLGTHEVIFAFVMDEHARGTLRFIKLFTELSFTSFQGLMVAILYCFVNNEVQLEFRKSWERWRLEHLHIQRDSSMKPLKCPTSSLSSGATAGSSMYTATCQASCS

On to `CC[C@H](C)[C@H](NC(=O)[C@H](Cc1ccccc1)NC(=O)[C@H](CCC(=O)O)NC(=O)[C@H](CCCCN)NC(=O)[C@H](C)NC(=O)[C@H](C)NC(=O)[C@H](CCC(N)=O)NC(=O)CNC(=O)[C@H](CCC(=O)O)NC(=O)[C@H](CC(C)C)NC(=O)[C@H](Cc1ccc(O)cc1)NC(=O)[C@H](CO)NC(=O)[C@H](CO)NC(=O)[C@@H](NC(=O)[C@H](CC(=O)O)NC(=O)[C@H](CO)NC(=O)[C@@H](NC(=O)[C@H](Cc1ccccc1)NC(=O)[C@@H](NC(=O)CNC(=O)[C@H](CCC(=O)O)NC(=O)[C@H](C)NC(=O)[C@@H](N)Cc1c[nH]cn1)[C@@H](C)O)[C@@H](C)O)C(C)C)C(=O)N[C@@H](C)C(=O)N[C@@H](Cc1c[nH]c2ccccc12)C(=O)N[C@@H](CC(C)C)C(=O)N[C@H](C(=O)N[C@@H](CCCCN)C(=O)NCC(=O)N[C@@H](CCCNC(=N)N)C(N)=O)C(C)C` [GLP-1, Glucagon-like peptide-1], for which the IC50 in experiment [1] is ~0.1 µM; in experiment [2] it was ~0.001 µM.
Regarding `CC(C)C[C@H](NC(=O)[C@H](Cc1ccc(O)cc1)NC(=O)[C@H](C)NC(=O)[C@H](CO)NC(=O)[C@@H]1CCCN1C(=O)[C@H](CO)NC(=O)[C@H](CO)NC(=O)[C@H](Cc1ccc(O)cc1)NC(=O)[C@H](Cc1ccccc1)NC(=O)[C@@H](N)Cc1ccccc1)C(=O)N[C@@H](CCC(=O)O)C(=O)N[C@@H](CCCCNC(=O)COCCOCCNC(=O)COCCOCCNC(=O)CC[C@H](NC(=O)CCCCCCCCCCCCCCCCC(=O)O)C(=O)O)C(=O)NCC(=O)NCC(=O)N1CCC[C@H]1C(=O)N[C@@H](CO)C(=O)N[C@@H](CO)C(=O)NCC(=O)N[C@@H](C)C(=O)N1CCC[C@H]1C(=O)N1CCC[C@H]1C(=O)N1CCC[C@H]1C(=O)N[C@@H](CO)C(=O)O` [PEP20] (H-FFYSSPSAYLEK([AEEA-AEEA-γGlu-C18 diacid])GGPSSGAPPPS-OH; N-terminus and C-terminus assumed), the Emax in experiment [3] came out at 99 ± 7.2%. Further, the Emax in experiment [4] was 98 ± 8.1%. In addition, in experiment [5] (followed for 96 h), the “duration of glucose-lowering effect” value is “at least 96 h”. Besides, in experiment [5], the “lowering of glucose level for 0–96 h (AUC0–96 h) compared with vehicle group” value was determined as 63.8% and the “time to normoglycemic state (<15 mmol/L) after administration” value is ≤ 1 h. For the same compound, the “plasma insulin concentrations from 15 to 60 min versus control” value in experiment [6] (OGTT, 25 nmol/kg s.c., ELISA) is given as “significantly greater than those of the control group”. Besides, the “glucose-lowering percentage compared with vehicle control group” value in experiment [6] (OGTT, 25 nmol/kg single s.c., glucose 2.0 g/kg) was 60.2%. The “blood glucose level (BGL) half an hour after glucose challenge” value in experiment [6] (25 nmol/kg single s.c., oral glucose 2.0 g/kg, vehicle 23.6 ± 3.1) came out at 10.1 mmol/L. In experiment [7] (n = 6), the body weight gain result was “effectively suppressed”, the “decrease of OGTT AUC at 4 weeks compared with week 0” value is on record as 22.1% and the food intake entry is reported as “effectively suppressed”. Besides, the “HbA1c versus control group” value in experiment [7] (p < 0.001, n = 6) is “reduction”.
